From patent US9315534B2, “Radiologic agents for monitoring alzheimer's disease progression and Evaluating a Response to Therapy and processes for the preparation of such agents” (BOARD OF REGENTS OF THE UNIVERSITY OF NEBRASKA, priority 2007, dated 2016)

Assays:
BChE [1] = target: T1, BChE (Mus musculus, UniProt Q03311); details: for activity in head of AD mouse, planar image: 1 hour after tail vein IV 0.5 mCi
Procedure: Two sets of preliminary biodistribution studies were conducted: (1) in normal athymic mice to determine general biodistribution and the brain uptake; and (2) in at least ˜7-14 months old APPswe mice (strain B6C3-Tg(APPswe,PSEN1dE9)85 Dbo/J; abbreviated as AD mice in the text below). JAX® GEMM® Strain wildtype mice from the colony were used as the control. B6C3-Tg(APPswe,PSEN1dE9) 85 Dbo/J is a double transgenic mice expressing chimeric mouse/human amyloid precursor protein(Mo/Hu APP695swe) and a mutant human presenilin 1(PS1-dE9) both directed to CNS neurons. Both mutations are associated with the early onset AD. Aβ plaques are produced in these mice in hippocampus and cortex by 9 months of age with the occasional deposits found in mice as young as 6 months of age (Jankowsky et al. (2004) Hum. Mol. Genet., 13:159-70; Garcia-Alloza et al. (2006) Neurobiol. Dis., 24:516-524). Planar imaging was done using a pinhole gamma camera. […] In both images mice are positioned with the dorsal surface of the mouse facing the pinhole collimator. […] There were 6 mice per each time point.

[2] = Partition coefficient, shake-tube method, 1-octanol and water; format: physicochemical; details: 1-octanol/water; for Partition coefficient P avg (std dev): 19° C., 125I-labeled pure diastereomers
Description: In order to reach intracerebral targets, drugs developed for diagnosis of the AD must be able to cross two barriers separating the central nervous system (CNS) from the periphery (Hansch et al. (1987) J. Pharm. Sci., 76:663-87.), the blood-brain barrier and the blood-cerebrospinal fluid barrier. Therefore the preliminary evaluation of the new drugs included partition coefficients. CNS agents that are highly lipid soluble with the log octanol-water partition coefficient between 1 and 3 have the equilibration half-times that are proportional to brain solubility (Atkinson et al. (2002) Curr. Med. Chem., 2:229-40; Dutta et al. (1998) Br. J. Anaesth., 81:422-4; Buchwald et al. (1998) Curr. Med. Chem., 5:353-80). Only pure SP and RP diastereomers were used. Ten μCi of each ^125I-labeled compound was added to 3 mL of water, the mixture was vortexed and 1-mL aliquots were transferred into fresh tubes. To each tube 1 mL of 1-octanol was added and the mixtures were vigorously vortexed until a homogenous suspension formed. At this point, the organic and water layers were separated by centrifugation at 19° C. Aliquots of each phase were gently removed and counted in a gamma counter in a triplicate. Typically, each KP was calculated as an average of n≧18.

[3] = Solubility in water, buffers and physiologically appropriate solvents
AChE = AChE (Bos taurus, UniProt P23795); details: SDS-PAGE autoradiogram
Sequence of AChE (P23795 31-613): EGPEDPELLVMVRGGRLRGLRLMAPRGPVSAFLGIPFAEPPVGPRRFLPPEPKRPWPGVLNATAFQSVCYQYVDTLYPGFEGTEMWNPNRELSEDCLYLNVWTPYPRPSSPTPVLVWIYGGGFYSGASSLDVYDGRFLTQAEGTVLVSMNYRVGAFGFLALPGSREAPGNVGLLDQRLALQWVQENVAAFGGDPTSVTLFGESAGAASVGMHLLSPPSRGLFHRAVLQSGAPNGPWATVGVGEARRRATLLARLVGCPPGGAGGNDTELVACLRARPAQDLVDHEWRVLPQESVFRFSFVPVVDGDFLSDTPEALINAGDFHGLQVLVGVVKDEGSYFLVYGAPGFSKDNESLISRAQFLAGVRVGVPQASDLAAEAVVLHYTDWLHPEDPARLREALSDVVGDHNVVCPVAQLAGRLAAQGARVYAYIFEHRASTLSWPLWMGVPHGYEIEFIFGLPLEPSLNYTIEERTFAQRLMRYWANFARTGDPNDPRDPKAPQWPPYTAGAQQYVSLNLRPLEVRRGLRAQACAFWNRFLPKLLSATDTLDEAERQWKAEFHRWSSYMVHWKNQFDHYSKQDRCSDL
Procedure: Lanes 1, 2: BChE-containing mouse serum incubated with 2a in (1) PBS+DMSO; (2) PBS+0.1% Triton X100+DMSO. Lanes 3-5: AChE-only containing bovine serum incubated with 2a in (3) DMSO; (4) PBS+DMSO; (5) PBS+0.1% Triton X-100+DMSO.

BChE [4] = target: T1, BChE; details: IV 0.5 mCi, 48 hours
Procedure: FIG. 7 provides images of microautoradiography of brain sections of AD mouse treated with IV dose of 0.5 mCi 3. Mouse was killed 48 hours after the administration of 3. Counterstained H&E; 10×.
FIG. 8 provides a microautoradiography of brain sections of the matching control mouse also treated with IV doses of 0.5 mCi 3. Mouse was killed 48 hours after the administration of 3. Counterstained H&E; 10×.
FIG. 9 provides an image of a section of brain from control mouse treated with 3 48 hours before necropsy. 100×; H&E.
FIG. 10 provides images of brain sections from AD mouse 48 hours after IV dose of 0.5 mCi 3. […] FIG. 10D: Cross-section of a blood vessel containing red blood cells surrounded by silver grains corresponding to circulating 3.
FIG. 8 is the corresponding section of a brain from a matched control mouse treated in the same manner. […] Imperfections in focus are because brain sections and silver grains are in different planes, tissue section vs. emulsion.

BChE [5] = target: T1, BChE
Procedure: Biodistribution studies were also conducted on 3, another BChE-binding derivative, in AD mouse and in normal controls. This study of 3 was conducted in >12-months old AD mice and matching control mice. All mice received IV 10 μCi of 3. Mice were killed 48 hours later. Tissues were collected and their radioactive content determined in a γ counter. One-half of each brain was fixed. The radioactivity in the other half was counted in a γ counter.

T1 sequence (Q03311 30-603): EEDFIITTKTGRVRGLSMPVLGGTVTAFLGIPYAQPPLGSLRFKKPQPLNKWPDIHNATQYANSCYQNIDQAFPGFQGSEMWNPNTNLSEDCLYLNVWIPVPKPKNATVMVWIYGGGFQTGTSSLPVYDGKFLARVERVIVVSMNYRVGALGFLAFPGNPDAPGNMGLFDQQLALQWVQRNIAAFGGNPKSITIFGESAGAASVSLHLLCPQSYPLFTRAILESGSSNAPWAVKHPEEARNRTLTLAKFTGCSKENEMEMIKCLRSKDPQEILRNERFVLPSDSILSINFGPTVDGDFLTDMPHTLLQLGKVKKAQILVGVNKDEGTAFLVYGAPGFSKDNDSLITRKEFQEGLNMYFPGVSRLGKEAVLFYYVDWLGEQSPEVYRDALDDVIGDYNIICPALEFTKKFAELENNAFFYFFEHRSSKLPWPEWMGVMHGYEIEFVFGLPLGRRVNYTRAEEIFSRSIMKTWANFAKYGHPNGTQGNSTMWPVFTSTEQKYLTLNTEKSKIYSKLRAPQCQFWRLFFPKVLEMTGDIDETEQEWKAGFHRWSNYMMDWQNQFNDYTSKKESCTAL

CC(C)(C)c1cc(C(C)(C)C)c2c(c1F)COP(=O)(OCC1OC(n3cc([125I])c(=O)[nH]c3=O)CC1O)O2 (stereo not drawn) [Compound 2b]
activity in head of AD mouse, planar image (BChE [1]): only the background level of activity

Cc1cccc2c1OP(=O)(OCC1OC(n3cc([125I])c(=O)[nH]c3=O)CC1O)OC2 (stereo not drawn) [Compound 4b]
log P [2]: 0.846 | Partition coefficient P avg (std dev) [2]: 7.02 (0.34)

O=c1[nH]c(=O)n(C2CC(O)C(COP3(=O)OCc4ccccc4O3)O2)cc1[125I] (stereo not drawn) [Compound 3b]
log P [2]: 0.652 | Partition coefficient P avg (std dev) [2]: 4.49 (0.25)

Cc1cccc2c1OP(=O)(OCC1OC(n3cc([125I])c(=O)[nH]c3=O)CC1O)OC2 (stereo not drawn) [Compound 4a]
log P [2]: 0.857 | Partition coefficient P avg (std dev) [2]: 7.19 (0.37)

O=c1[nH]c(=O)n(C2CC(O)C(COP3(=O)OCc4ccccc4O3)O2)cc1[125I] (stereo not drawn) [Compound 3a]
log P [2]: 0.623 | Partition coefficient P avg (std dev) [2]: 4.19 (0.12)

CC(C)(C)c1cc(C(C)(C)C)c2c(c1F)COP(=O)(OCC1OC(n3cc([125I])c(=O)[nH]c3=O)CC1O)O2 (stereo not drawn) [Compound 2a]
solubility in buffers and other physiologically appropriate solvents [3]: low | binding to bovine serum (AChE, no BChE) (AChE): complete absence | activity in head of AD mouse, planar image (BChE [1]): accumulation of 2a in the head of the AD mouse | percent injected dose per gram brain, 2a versus 2b (BChE [1]; AD mice, IV, all time points, 6 mice per time point): significantly higher

O=c1[nH]c(=O)n(C2CC(O)C(COP3(=O)OCc4ccccc4O3)O2)cc1[125I] (mixture of isomers) [Compound 3]
clusters of radioactivity in brain of AD mice (BChE [4]; AD mouse): large clusters of radioactivity | clusters of radioactivity in brains of control mice (BChE [4]; control mouse): practically absent | brain uptake AD mice compared to wildtype controls (BChE [5]; 48 hours after IV): ~3 times | brain uptake in AD mice (BChE [5]; >12-months old AD mice, IV 10 μCi, 48 hours): 0.085±0.008 % ID/g | brain uptake in matching wildtype controls (BChE [5]; control mice, IV 10 μCi, 48 hours): 0.030±0.011 % ID/g
